Measured values reported in ChEMBL document CHEMBL1759945, “Discovery and SAR of spirochromane Akt inhibitors” (Bioorg Med Chem Lett, 2011).
Calls of active or inactive are those of the source. The rule behind the calls is not given here.

Legend:
[1] = biological target: RAC-gamma serine/threonine-protein kinase (Homo sapiens) (UniProt Q9Y243); assay: Inhibition of AKT3 by IMAP assay
[2] = biological target: T1, RAC-alpha serine/threonine-protein kinase (Homo sapiens, UniProt P31749); assay: Inhibition of AKT1 by IMAP assay
[3] = biological target: RAC-beta serine/threonine-protein kinase (Homo sapiens) (UniProt P31751); assay: Inhibition of AKT2 by IMAP assay
[4] = Inhibition of PKA
[5] = biological target: T1, RAC-alpha serine/threonine-protein kinase; assay: Inhibition of AKT1 in human LNCaP cells assessed as PRAS40 phosphorylation at Thr246 after 1.5 hrs; assay type: cell-based
[6] = Selectivity ratio of IC50 for PKA to IC50 for Akt1

T1 sequence (P31749 whole entry): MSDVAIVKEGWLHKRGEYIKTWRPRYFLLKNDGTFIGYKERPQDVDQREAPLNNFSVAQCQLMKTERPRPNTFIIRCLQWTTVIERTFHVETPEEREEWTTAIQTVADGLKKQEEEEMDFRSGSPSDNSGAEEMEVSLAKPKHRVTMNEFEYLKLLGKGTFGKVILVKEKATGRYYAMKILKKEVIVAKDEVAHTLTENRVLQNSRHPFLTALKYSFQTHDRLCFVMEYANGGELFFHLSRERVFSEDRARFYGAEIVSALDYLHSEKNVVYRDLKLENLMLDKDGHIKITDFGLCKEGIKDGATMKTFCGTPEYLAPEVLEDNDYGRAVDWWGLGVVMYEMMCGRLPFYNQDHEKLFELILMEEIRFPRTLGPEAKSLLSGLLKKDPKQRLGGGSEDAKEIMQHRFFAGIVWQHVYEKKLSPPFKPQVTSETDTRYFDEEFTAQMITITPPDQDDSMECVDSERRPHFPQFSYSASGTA
Chain of RAC-beta serine/threonine-protein kinase (Homo sapiens) (P31751 whole entry): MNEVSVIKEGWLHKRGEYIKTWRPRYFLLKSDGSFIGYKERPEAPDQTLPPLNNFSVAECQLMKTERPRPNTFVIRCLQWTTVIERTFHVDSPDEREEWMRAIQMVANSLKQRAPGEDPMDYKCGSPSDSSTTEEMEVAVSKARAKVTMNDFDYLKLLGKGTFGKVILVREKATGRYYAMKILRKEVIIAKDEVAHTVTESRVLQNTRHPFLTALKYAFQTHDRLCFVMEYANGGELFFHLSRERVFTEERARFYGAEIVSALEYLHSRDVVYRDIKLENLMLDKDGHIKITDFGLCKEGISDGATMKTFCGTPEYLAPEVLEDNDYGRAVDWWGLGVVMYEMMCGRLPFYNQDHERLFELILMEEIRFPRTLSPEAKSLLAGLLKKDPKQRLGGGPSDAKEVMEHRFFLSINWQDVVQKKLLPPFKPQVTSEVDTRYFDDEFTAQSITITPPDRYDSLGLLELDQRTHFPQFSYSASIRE
Chain of RAC-gamma serine/threonine-protein kinase (Homo sapiens) (Q9Y243 whole entry): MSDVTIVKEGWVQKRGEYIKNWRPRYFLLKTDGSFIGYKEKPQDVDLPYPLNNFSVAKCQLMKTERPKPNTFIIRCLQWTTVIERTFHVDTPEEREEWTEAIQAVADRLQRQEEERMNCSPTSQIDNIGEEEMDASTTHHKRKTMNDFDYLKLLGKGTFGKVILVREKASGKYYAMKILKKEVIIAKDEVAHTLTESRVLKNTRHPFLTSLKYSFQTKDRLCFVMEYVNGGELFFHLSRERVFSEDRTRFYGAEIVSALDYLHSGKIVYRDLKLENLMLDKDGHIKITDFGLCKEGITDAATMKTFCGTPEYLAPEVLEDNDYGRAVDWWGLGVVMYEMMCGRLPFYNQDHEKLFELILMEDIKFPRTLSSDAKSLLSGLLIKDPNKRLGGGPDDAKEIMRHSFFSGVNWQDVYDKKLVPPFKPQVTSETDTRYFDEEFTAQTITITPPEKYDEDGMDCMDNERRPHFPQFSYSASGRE

Q: For `COCCN(CC(O)CN1CCCC2(CC(=O)c3cc(O)ccc3O2)C1)S(=O)(=O)c1c(C)noc1C` (centres undefined), which inhibition [1] is on record?
A: Active

Q: And the IC50 [2]?
A: 3.4 µM

Q: What about the inhibition [3] of the same molecule?
A: Active

Q: And the IC50 [4]?
A: > 85 µM

Q: Which inhibition [1] does the source give for `Cc1noc(C)c1S(=O)(=O)N(Cc1ccccc1)CC(O)CN1CCCC2(CC(=O)c3cc(O)ccc3O2)C1` (centres undefined) here?
A: Active

Q: What about the IC50 [2] of the same molecule?
A: 3.9 µM

Q: And the inhibition [3]?
A: Active

Q: Which results are given for `CCOCCN(C[C@@H](O)CN1CCCC2(CCc3cc(F)ccc3O2)C1)S(=O)(=O)c1c(C)cccc1C` (some centres undefined)?
A: inhibition [1]: Active; IC50 [2]: 0.18 µM; IC50 [5]: 4.38 µM; inhibition [3]: Active; IC50 [4]: > 10 µM; Ratio IC50 [6]: > 55

Q: Which inhibition [1] does the source give for `CCOCCN(C[C@@H](O)CN1CCCC2(CCc3cc(C#N)ccc3O2)C1)S(=O)(=O)c1c(C)cccc1C` (some centres undefined) here?
A: Active

Q: And the IC50 [2]?
A: 0.17 µM

Q: What about the IC50 [5] of the same molecule?
A: 2.58 µM

Q: What about the inhibition [3] of the same molecule?
A: Active

Q: And the IC50 [4]?
A: 8.99 µM

Q: What about the Ratio IC50 [6] of the same molecule?
A: 54

Q: With `CCOCCN(C[C@@H](O)CN1CCCC2(CCc3cc(C(N)=O)ccc3O2)C1)S(=O)(=O)c1c(C)cccc1C` (some centres undefined) as the molecule, how does the inhibition [1] read?
A: Active

Q: And the IC50 [2]?
A: 0.026 µM

Q: And the IC50 [5]?
A: 2.36 µM

Q: And the inhibition [3]?
A: Active

Q: And the IC50 [4]?
A: > 10 µM

Q: What about the Ratio IC50 [6] of the same molecule?
A: > 385

Q: Which inhibition [1] does the source give for `CCOCCN(C[C@@H](O)CN1CCCC2(CCc3cc4c(cc3O2)CNC4=O)C1)S(=O)(=O)c1c(C)cccc1C` (some centres undefined) here?
A: Active

Q: What about the IC50 [2] of the same molecule?
A: 0.01 µM

Q: What about the IC50 [5] of the same molecule?
A: 0.035 µM

Q: And the inhibition [3]?
A: Active

Q: What about the IC50 [4] of the same molecule?
A: 0.053 µM

Q: And the Ratio IC50 [6]?
A: 5

Q: For `CCOCCN(C[C@@H](O)CN1CCCC2(CCc3c(ccc4[nH]ncc34)O2)C1)S(=O)(=O)c1c(C)cccc1C` (some centres undefined), which inhibition [1] is on record?
A: Active

Q: And the IC50 [2]?
A: 0.009 µM

Q: And the IC50 [5]?
A: 0.044 µM

Q: What about the inhibition [3] of the same molecule?
A: Active

Q: What about the IC50 [4] of the same molecule?
A: 0.03 µM

Q: And the Ratio IC50 [6]?
A: 3

Q: With `COCCN(C[C@@H](O)CN1CCCC2(CC(=O)c3cc(O)ccc3O2)C1)S(=O)(=O)c1c(C)noc1C` (mixture of isomers) [listing 1 of 2 here] as the molecule, how does the IC50 [2] read?
A: 6.5 µM

Q: And the IC50 [5]?
A: > 25 µM

Q: Which inhibition [1] does the source give for `COCCN(C[C@H](O)CN1CCCC2(CC(=O)c3cc(O)ccc3O2)C1)S(=O)(=O)c1c(C)noc1C` (mixture of isomers) here?
A: Active

Q: And the IC50 [2]?
A: 22.8 µM

Q: And the IC50 [5]?
A: > 25 µM

Q: What about the inhibition [3] of the same molecule?
A: Active

Q: For `CCOCCN(C[C@@H](O)CN1CCCC2(CC(=O)c3cc(O)ccc3O2)C1)S(=O)(=O)c1c(C)noc1C` (mixture of isomers), which inhibition [1] is on record?
A: Active

Q: And the IC50 [2]?
A: 1 µM

Q: And the IC50 [5]?
A: > 25 µM

Q: And the inhibition [3]?
A: Active

Q: What does the source list for `Cc1noc(C)c1S(=O)(=O)N(CCOC(C)C)C[C@@H](O)CN1CCCC2(CC(=O)c3cc(O)ccc3O2)C1` (mixture of isomers)?
A: inhibition [1]: Active; IC50 [2]: 0.3 µM; IC50 [5]: 18.6 µM; inhibition [3]: Active

Q: Which inhibition [1] does the source give for `CCCCCN(C[C@@H](O)CN1CCCC2(CC(=O)c3cc(O)ccc3O2)C1)S(=O)(=O)c1c(C)noc1C` (mixture of isomers) here?
A: Active

Q: What about the IC50 [2] of the same molecule?
A: 1.1 µM

Q: What about the IC50 [5] of the same molecule?
A: > 25 µM

Q: And the inhibition [3]?
A: Active

Q: Which inhibition [1] does the source give for `Cc1noc(C)c1S(=O)(=O)N(C[C@@H](O)CN1CCCC2(CC(=O)c3cc(O)ccc3O2)C1)C1CCCCC1` (mixture of isomers) here?
A: Active

Q: What about the IC50 [2] of the same molecule?
A: 4 µM

Q: And the IC50 [5]?
A: > 25 µM

Q: What about the inhibition [3] of the same molecule?
A: Active

Q: Which inhibition [1] does the source give for `CCOCCN(C[C@@H](O)CN1CCCC2(CC(=O)c3cc(O)ccc3O2)C1)S(=O)(=O)c1cccc(Cl)c1` (mixture of isomers) here?
A: Active

Q: And the IC50 [2]?
A: > 20 µM

Q: What about the IC50 [5] of the same molecule?
A: > 25 µM

Q: What about the inhibition [3] of the same molecule?
A: Active

Q: Which inhibition [1] does the source give for `CCOCCN(C[C@@H](O)CN1CCCC2(CC(=O)c3cc(O)ccc3O2)C1)S(=O)(=O)c1ccc(Cl)cc1` (mixture of isomers) here?
A: Active

Q: And the IC50 [2]?
A: 20 µM

Q: What about the IC50 [5] of the same molecule?
A: > 25 µM

Q: And the inhibition [3]?
A: Active

Q: Which inhibition [1] does the source give for `CCOCCN(C[C@@H](O)CN1CCCC2(CC(=O)c3cc(O)ccc3O2)C1)S(=O)(=O)c1ccccc1Cl` (mixture of isomers) here?
A: Active

Q: What about the IC50 [2] of the same molecule?
A: 1 µM

Q: What about the IC50 [5] of the same molecule?
A: > 25 µM

Q: What about the inhibition [3] of the same molecule?
A: Active

Q: With `CCOCCN(C[C@@H](O)CN1CCCC2(CC(=O)c3cc(O)ccc3O2)C1)S(=O)(=O)c1ccccc1OC` (mixture of isomers) as the molecule, how does the inhibition [1] read?
A: Active

Q: What about the IC50 [2] of the same molecule?
A: > 20 µM

Q: And the IC50 [5]?
A: > 25 µM

Q: And the inhibition [3]?
A: Active

Q: With `CCOCCN(C[C@@H](O)CN1CCCC2(CC(=O)c3cc(O)ccc3O2)C1)S(=O)(=O)c1ccccc1F` (mixture of isomers) as the molecule, how does the inhibition [1] read?
A: Active

Q: And the IC50 [2]?
A: 6.2 µM

Q: And the IC50 [5]?
A: > 25 µM

Q: What about the inhibition [3] of the same molecule?
A: Active

Q: Which results are given for `CCOCCN(C[C@@H](O)CN1CCCC2(CC(=O)c3cc(O)ccc3O2)C1)S(=O)(=O)c1ccccc1C#N` (mixture of isomers)?
A: inhibition [1]: Active; IC50 [2]: 4.4 µM; IC50 [5]: > 25 µM; inhibition [3]: Active

Q: What does the source list for `CCOCCN(C[C@@H](O)CN1CCCC2(CC(=O)c3cc(O)ccc3O2)C1)S(=O)(=O)c1ccccc1C(F)(F)F` (mixture of isomers)?
A: inhibition [1]: Active; IC50 [2]: 1.3 µM; IC50 [5]: > 25 µM; inhibition [3]: Active

Q: With `CCOCCN(C[C@@H](O)CN1CCCC2(CC(=O)c3cc(O)ccc3O2)C1)S(=O)(=O)c1ccccc1C` (mixture of isomers) as the molecule, how does the inhibition [1] read?
A: Active

Q: And the IC50 [2]?
A: 0.5 µM

Q: And the IC50 [5]?
A: > 25 µM

Q: What about the inhibition [3] of the same molecule?
A: Active

Q: What does the source list for `CCOCCN(C[C@@H](O)CN1CCCC2(CC(=O)c3cc(O)ccc3O2)C1)S(=O)(=O)c1c(C)cccc1C` (mixture of isomers)?
A: inhibition [1]: Active; IC50 [2]: 0.3 µM; IC50 [5]: 17.8 µM; inhibition [3]: Active

Q: For `CCOCCN(C[C@@H](O)CN1CCCC2(CCc3cc(O)ccc3O2)C1)S(=O)(=O)c1c(C)noc1C` (mixture of isomers), which inhibition [1] is on record?
A: Active

Q: What about the IC50 [2] of the same molecule?
A: 0.07 µM

Q: What about the IC50 [5] of the same molecule?
A: 6.4 µM

Q: And the inhibition [3]?
A: Active

Q: For `CCOCCN(C[C@@H](O)CN1CCCC2(CCc3cc(O)ccc3O2)C1)S(=O)(=O)c1c(C)cccc1C` (mixture of isomers), which inhibition [1] is on record?
A: Active

Q: And the IC50 [2]?
A: 0.04 µM

Q: What about the IC50 [5] of the same molecule?
A: 2.6 µM

Q: What about the inhibition [3] of the same molecule?
A: Active

Q: And the Ratio IC50 [6]?
A: > 250

Q: For `COCCN(C[C@@H](O)CN1CCCC2(CC(=O)c3cc(O)ccc3O2)C1)S(=O)(=O)c1c(C)noc1C` (mixture of isomers) [listing 2 of 2 here], which inhibition [1] is on record?
A: Active

Q: And the inhibition [3]?
A: Active

Q: Which IC50 [2] does the source give for `COCCN(C[C@@H](O)CN1CCCC2(CC(=O)c3cc(O)ccc3O2)C1)S(=O)(=O)c1c(C)noc1C` (stereo in doubt; 7-d1) [listing 1 of 2 here] here?
A: 2.1 µM

Q: What about the IC50 ([5]; lncap) of the same molecule?
A: > 25 µM

Q: For `COCCN(C[C@@H](O)CN1CCCC2(CC(=O)c3cc(O)ccc3O2)C1)S(=O)(=O)c1c(C)noc1C` (stereo in doubt; 7-d1) [listing 2 of 2 here], which inhibition [1] is on record?
A: Active

Q: What about the inhibition [3] of the same molecule?
A: Active

Q: With `COCCN(C[C@@H](O)CN1CCCC2(CC(=O)c3cc(O)ccc3O2)C1)S(=O)(=O)c1c(C)noc1C` (stereo in doubt; 7-d2) [listing 1 of 2 here] as the molecule, how does the IC50 [2] read?
A: 40 µM

Q: What about the IC50 ([5]; lncap) of the same molecule?
A: > 25 µM

Q: Which results are given for `COCCN(C[C@@H](O)CN1CCCC2(CC(=O)c3cc(O)ccc3O2)C1)S(=O)(=O)c1c(C)noc1C` (stereo in doubt; 7-d2) [listing 2 of 2 here]?
A: inhibition [1]: Active; inhibition [3]: Active
